Source: PubChem BioAssay AID720620 (The Scripps Research Institute Molecular Screening Center, 2013)
Active and inactive are the calls of the source.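 Rule for the calls: active = at least 50% inhibition of the human mitochondrial methionine-charging enzyme at 10 µM; inactive = under 50% inhibition at 10 µM.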

Molecular target: Methionine--tRNA ligase, mitochondrial (Homo sapiens) (UniProt Q96GW9)
Test: human mitochondrial MetRS inhibitors, late-stage follow-up, counter-screen for T. brucei MetRS inhibitor project, biochemical, radioactivity, [3H]methionine, two concentrations (AID 720620)
Details: recombinant human mitochondrial MetRS, [3H]Met-tRNA charging, 60 min, stronger effect = higher value

Sequence of Methionine--tRNA ligase, mitochondrial (Homo sapiens) (Q96GW9 whole entry, looked up): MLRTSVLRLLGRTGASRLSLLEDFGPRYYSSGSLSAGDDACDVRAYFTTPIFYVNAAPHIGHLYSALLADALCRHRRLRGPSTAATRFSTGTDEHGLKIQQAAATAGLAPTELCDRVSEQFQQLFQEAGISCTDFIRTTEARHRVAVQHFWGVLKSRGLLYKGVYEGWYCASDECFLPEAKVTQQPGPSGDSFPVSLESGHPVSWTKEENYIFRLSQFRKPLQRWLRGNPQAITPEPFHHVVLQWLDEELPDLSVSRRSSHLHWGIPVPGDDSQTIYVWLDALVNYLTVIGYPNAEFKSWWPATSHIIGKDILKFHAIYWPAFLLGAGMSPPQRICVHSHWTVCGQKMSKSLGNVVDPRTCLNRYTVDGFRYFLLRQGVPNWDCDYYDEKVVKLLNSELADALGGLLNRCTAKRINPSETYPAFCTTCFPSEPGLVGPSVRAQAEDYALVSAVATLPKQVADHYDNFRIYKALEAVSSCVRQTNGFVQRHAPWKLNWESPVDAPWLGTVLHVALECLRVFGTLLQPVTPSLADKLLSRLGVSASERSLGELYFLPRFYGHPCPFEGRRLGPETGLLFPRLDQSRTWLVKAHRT

inhibition (at 10 µM) | inhibition (inhibition, at 1 µM) | SMILES
-11.2% (inactive) | -17.1% | O=C(NNC(=O)c1cc(-c2ccc(Cl)c(Cl)c2)nc2ccccc12)Nc1ccccc1
12.6% (inactive) | 7.99% | O=C(NCc1nc2ccccc2[nH]1)C1=C[C@H](C2CC2)C[C@H](OCc2ccc(CO)cc2)O1
-2.2% (inactive) | -15.4% | O=C(Cn1cnc2ccccc21)Nc1cccc([N+](=O)[O-])c1
24.5% (inactive) | 14.3% | COc1ccc2[nH]c3nc(SCC(=O)Nc4ccc5c(c4)OCO5)nnc3c2c1
29% (inactive) | -9.46% | O=C(NCc1nc2ccccc2[nH]1)C1=C[C@@H](c2ccc(Br)cc2)C[C@@H](OCCCCO)O1
4.32% (inactive) | -11.1% | O=C(Nc1ccc(F)c(Cl)c1)C1CC(=O)n2c(nc3ccccc32)N1 (stereo not drawn)
43.8% (inactive) | -7.99% | CC(=O)c1c[nH]c(C(=O)NCc2cccc(C(F)(F)F)c2)c1
7.87% (inactive) | -14.1% | CC(=O)c1ccc(N2CCN(C(=O)CCCn3c(=O)[nH]c4ccc(Br)cc4c3=O)CC2)cc1
-4.56% (inactive) | -8.53% | CCOC(=O)N1CCC(Nc2c(Nc3ccc(F)cc3)c(=O)c2=O)CC1
4.46% (inactive) | -17.4% | O=C1[C@@H]2Cc3c([nH]c4ccccc34)C(c3cccc([N+](=O)[O-])c3)N2C(=O)CN1CCCO (stereo partly drawn)
-6.71% (inactive) | -22.4% | O=C(CC=NOCc1ccc([N+](=O)[O-])cc1)Nc1ccc(Br)cc1
41.9% (inactive) | -3.17% | Clc1ccc(-c2nnc(SCc3nc4ccccc4[nH]3)o2)c(Cl)c1
-5.52% (inactive) | -20% | Clc1ccc(OCCSCc2nc3ccccc3[nH]2)cc1
12.7% (inactive) | -8.08% | O=C(NCc1nc2ccccc2[nH]1)C1=C[C@H](c2ccccc2)C[C@H](OCc2ccc(CO)cc2)O1
-19.7% (inactive) | -31.6% | COc1ccccc1-n1c(SCC(=O)Nc2ccc(Cl)cc2)nc(O)c(Cc2ccccc2)c1=O
11.7% (inactive) | -15% | CCO[C@H]1OC(C(=O)NCc2nc3ccccc3[nH]2)=C[C@@H](c2ccc(Br)cc2)[C@@H]1CCCO
-3.65% (inactive) | -24.2% | CC(C)OCCCN1CC(=O)N2C(c3cccc([N+](=O)[O-])c3)c3[nH]c4ccccc4c3C[C@H]2C1=O (stereo partly drawn)
-2.4% (inactive) | -6.37% | O=C(NCc1nc2ccccc2[nH]1)C1=C[C@H](c2ccc(Br)cc2)C[C@H](OCCCCO)O1
-14.2% (inactive) | -21.5% | Brc1cnc2nc(SCc3nc4ccccc4[nH]3)[nH]c2c1
5.87% (inactive) | -11.4% | O=C(NCc1nc2ccccc2[nH]1)C1=C[C@@H](C2CC2)C[C@@H](OCc2ccc(CO)cc2)O1
1.47% (inactive) | -13% | O=C(CC=NOCc1ccc([N+](=O)[O-])cc1)Nc1ccc(Cl)cc1
-25.5% (inactive) | -25.1% | O=C(CN1CCSC1=NCc1ccccc1)c1ccc(Cl)c(Cl)c1
-21.5% (inactive) | -35.7% | Cc1ccc(NC(=O)CN(C)C(=O)CCSc2ccc(F)cc2)cc1
-12% (inactive) | -29.7% | COc1ccc(CNC(=O)CSc2nnc3c(n2)[nH]c2ccc(F)cc23)cc1
24.8% (inactive) | -17.7% | C[C@H](O)[C@@H]1C(=O)N2CCc3c([nH]c4ccccc34)[C@@H]2C[C@@H]1N(C)Cc1ccc2c(c1)OCO2
4.55% (inactive) | -24.6% | CC(CC(=O)Nc1cccc(Br)c1)=NNC(=O)c1ccc(O)cc1O
80.3% | 14% | CN(Cc1cc(Cl)cc(Cl)c1)[C@H]1C[C@H]2c3[nH]c4ccccc4c3CCN2C(=O)[C@H]1CO

inhibition (at 10 µM) | inhibition (inhibition, at 1 µM) | SMILES
2.21% (inactive) | -9.21% | O=C(NCc1nc2ccccc2[nH]1)C1=C[C@H](c2csc3ccccc23)C[C@H](OCCCCO)O1
-14.1% (inactive) | -28.9% | O=C(CCC(=O)Nc1cccc([N+](=O)[O-])c1)NN=Cc1cccs1
16.7% (inactive) | -11.6% | O=C(NCc1nc2ccccc2[nH]1)C1=C[C@@H](c2ccc(Br)cc2)C[C@@H](OCc2ccc(CO)cc2)O1
-0.58% (inactive) | -3.63% | O=C(NCc1nc2ccccc2[nH]1)C1=C[C@@H](c2ccc3c(c2)OCO3)C[C@@H](OCCCCO)O1
-21.4% (inactive) | -30.3% | O=C(NNC(=O)c1ccc(-n2cncn2)c([N+](=O)[O-])c1)c1ccc(Cl)cc1
-5.44% (inactive) | -10.6% | CC(C)(C)[C@@H]1C=C(C(=O)NCc2nc3ccccc3[nH]2)O[C@H](OCc2ccc(CO)cc2)C1
17.2% (inactive) | 0.59% | O=C(NCc1nc2ccccc2[nH]1)C1=C[C@H](c2ccc(Br)cc2)C[C@H](OCc2ccc(CO)cc2)O1
10.2% (inactive) | -10.7% | O=C(NCc1nc2ccccc2[nH]1)C1=C[C@H](c2ccc3c(c2)OCO3)C[C@H](OCCCCO)O1
10.3% (inactive) | -20.5% | CC(C)(C)[C@H]1C=C(C(=O)NCc2nc3ccccc3[nH]2)O[C@@H](OCc2ccc(CO)cc2)C1
0.31% (inactive) | -6.26% | COc1ccc(OCC(O)CNC(=O)Nc2ccc(Cl)cc2)cc1 (stereo not drawn)
31.4% (inactive) | -0.2% | Oc1c(Cl)cc(Cl)cc1CNc1nc2ccccc2[nH]1
40.4% (inactive) | 49.7% | COc1cccc(NC(=O)CSc2nnc3c(n2)[nH]c2ccc(C)cc23)c1
-19.1% (inactive) | -36.7% | CN(CC(=O)Nc1ccc(Cl)cc1)C(=O)c1ccc(-n2cncn2)c([N+](=O)[O-])c1
-0.68% (inactive) | -4.5% | O=C1CC(SCc2nc3ccccc3[nH]2)C(=O)N1c1cccc(Cl)c1 (stereo not drawn)
-8.54% (inactive) | -13% | O=C(C[C@H]1C(=O)N(Cc2ccccc2)C[C@@H]1c1ccc(Br)cc1)Nc1ccc(Br)cc1
4.89% (inactive) | -19.7% | O=C(N/C(=C\c1cccnc1)c1nc2ccccc2[nH]1)c1cccc(Br)c1
-11% (inactive) | -31.2% | Cc1[nH]c2ccc(Br)cc2c(=O)c1CN1CCCCCC1
25.5% (inactive) | 2.97% | O=C(NCCc1nc2ccccc2[nH]1)c1ccc(Cl)c([N+](=O)[O-])c1
9.82% (inactive) | -18.3% | O=C(CC(=O)Nc1cccc(Cl)c1)NN=Cc1ccccc1
-6.56% (inactive) | -22.4% | O=C(Cn1cc(C(=O)C(=O)N2CCOCC2)c2ccccc21)Nc1cccc(C(F)(F)F)c1
25.6% (inactive) | -25.5% | O=C1CC(N(CCc2ccccc2)C(=S)Nc2ccccc2)C(=O)N1c1ccc(Br)cc1 (stereo not drawn)
14% (inactive) | -17.1% | CN1CC(=O)N2C(c3cccc([N+](=O)[O-])c3)c3[nH]c4ccccc4c3C[C@H]2C1=O (stereo partly drawn)
19.1% (inactive) | -9.69% | COc1ccccc1NS(=O)(=O)c1cccc(NC(=O)Nc2ccccc2)c1
-6.53% (inactive) | -4.89% | CCO[C@@H]1OC(C(=O)NCc2nc3ccccc3[nH]2)=C[C@H](c2ccc(Br)cc2)[C@H]1CCCO
6.67% (inactive) | -15% | O=C(NCc1nc2ccccc2[nH]1)C1=C[C@@H](c2csc3ccccc23)C[C@@H](OCCCCO)O1
9.9% (inactive) | -2.41% | CCCCCCCCCC1NC(C(=O)O)Cc2c1[nH]c1ccccc21 (stereo not drawn)
15.8% (inactive) | -16.8% | O=C(NCc1nc2ccccc2[nH]1)C1=C[C@@H](c2ccccc2)C[C@@H](OCc2ccc(CO)cc2)O1
